Laboratory results reported in ChEMBL document CHEMBL1201862, “PubChem BioAssay data set” (2004).
Calls of active or inactive are those of the source.

Legend:
[1] = IOSE-T80 ovarian epithelial cell cytotoxicity, dose response, cytotoxicity control for PAX8 inhibitor project, plate reader, dry powder samples (AID 743045); format: functional, cell-based
[2] = A2780 ovarian cancer cell cytotoxicity, dose response, cytotoxicity control, plate reader, dry powder samples (AID 743046); format: functional, cell-based
[3] = target: T1, Long-chain-fatty-acid--AMP ligase FadD28 (Mycobacterium tuberculosis, UniProt P9WQ59); assay: Fluorescence polarization aasay to screen for inhibitors that compete for the binding of FadD28 to a bisubstrate Measured in Biochemical System Using Plate Reader - 2147-01_Inhibitor_Dose_CherryPick_Activity.; format: functional, Mycobacterium tuberculosis H37Rv
T1 sequence (P9WQ59 whole entry): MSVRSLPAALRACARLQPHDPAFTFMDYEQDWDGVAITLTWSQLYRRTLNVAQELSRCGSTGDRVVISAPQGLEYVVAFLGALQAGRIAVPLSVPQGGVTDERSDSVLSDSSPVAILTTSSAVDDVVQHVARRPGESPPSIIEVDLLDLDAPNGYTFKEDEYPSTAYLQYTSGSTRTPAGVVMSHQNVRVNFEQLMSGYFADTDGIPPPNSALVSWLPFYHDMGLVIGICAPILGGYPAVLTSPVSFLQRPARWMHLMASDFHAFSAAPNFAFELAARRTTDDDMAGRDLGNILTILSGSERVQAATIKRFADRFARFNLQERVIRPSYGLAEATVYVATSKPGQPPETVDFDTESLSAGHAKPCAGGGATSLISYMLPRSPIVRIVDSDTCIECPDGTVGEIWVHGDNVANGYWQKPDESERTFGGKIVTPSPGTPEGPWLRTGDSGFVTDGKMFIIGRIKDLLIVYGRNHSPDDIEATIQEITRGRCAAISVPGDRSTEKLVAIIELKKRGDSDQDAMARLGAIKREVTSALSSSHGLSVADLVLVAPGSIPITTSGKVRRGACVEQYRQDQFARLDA

[4] = PAX5 activity inhibitors, dose response, selectivity assay for PAX8 inhibitor project, cell-based, plate reader, dry powder samples (AID 743047); format: functional;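 also: HEK293 cells carrying a Pax5 driven CD19 promoter luciferase reporter; potency of inhibitors that lower reporter luminescence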
[5] = THP-1 cell cytotoxicity, dose response, cytotoxicity control for Vif-APOBEC3G degradation inhibitor project, THP-1 cells (AID 1117359); format: functional; conditions: Human immunodeficiency virus 1, THP-1
[6] = NIH:OVCAR-3 ovarian cancer cell cytotoxicity, dose response, PAX8 inhibitor project, plate reader, dry powder samples (AID 743044); format: functional, cell-based
[7] = cytotoxicity in OV-90 ovarian cancer cells, dose response, PAX8 inhibitor project, cell-based, plate reader, dry powder, SA8 (AID 743149); format: functional
[8] = Luminescence Cell-Based Dose Response HTS to Identify Activators of Luciferase Translation or Activity in H4 […] Cells. [Related pubchem assays: 1829 (Project Summary), 1814 (Primary HTS)]; format: functional
[9] = target: T2, Replicative DNA helicase DnaB (Mycobacterium tuberculosis, UniProt P9WMR3); assay: DnaB intein splicing inhibitors, dose response, biochemical, cell-free fluorescence (AID 449749); format: functional
T2 sequence (P9WMR3 whole entry): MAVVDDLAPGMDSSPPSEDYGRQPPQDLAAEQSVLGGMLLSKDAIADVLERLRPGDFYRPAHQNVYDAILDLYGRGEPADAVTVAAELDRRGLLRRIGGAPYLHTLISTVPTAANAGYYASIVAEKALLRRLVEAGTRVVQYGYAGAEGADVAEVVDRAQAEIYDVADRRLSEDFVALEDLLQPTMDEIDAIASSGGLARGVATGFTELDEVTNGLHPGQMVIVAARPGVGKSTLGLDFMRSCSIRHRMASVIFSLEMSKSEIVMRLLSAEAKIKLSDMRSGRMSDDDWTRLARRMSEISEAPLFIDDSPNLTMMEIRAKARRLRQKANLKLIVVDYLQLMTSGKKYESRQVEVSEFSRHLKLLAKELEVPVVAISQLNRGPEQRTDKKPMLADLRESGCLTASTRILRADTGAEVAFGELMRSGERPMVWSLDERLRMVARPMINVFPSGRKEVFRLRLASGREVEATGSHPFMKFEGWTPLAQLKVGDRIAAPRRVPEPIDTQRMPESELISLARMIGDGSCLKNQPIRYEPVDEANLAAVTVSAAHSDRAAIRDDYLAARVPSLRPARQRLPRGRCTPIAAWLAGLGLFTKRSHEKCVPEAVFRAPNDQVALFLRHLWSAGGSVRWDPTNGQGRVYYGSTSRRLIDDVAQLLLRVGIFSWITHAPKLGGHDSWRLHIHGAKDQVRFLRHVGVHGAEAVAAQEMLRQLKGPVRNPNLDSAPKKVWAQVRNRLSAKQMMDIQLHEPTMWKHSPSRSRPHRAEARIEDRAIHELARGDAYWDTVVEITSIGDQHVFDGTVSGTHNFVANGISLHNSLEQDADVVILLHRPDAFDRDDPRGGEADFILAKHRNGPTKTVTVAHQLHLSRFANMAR

Protein RecA = target: T3, Protein RecA (Mycobacterium tuberculosis, UniProt P9WHJ3); assay: Fluorescence Cell-Free Homogeneous Dose Retest to Identify Inhibitors of RecA-Intein Splicing Activity. [Related pubchem assays (depositor defined):AID2097, AID2223, AID489010, AID492950]; format: functional
T3 sequence (P9WHJ3 whole entry): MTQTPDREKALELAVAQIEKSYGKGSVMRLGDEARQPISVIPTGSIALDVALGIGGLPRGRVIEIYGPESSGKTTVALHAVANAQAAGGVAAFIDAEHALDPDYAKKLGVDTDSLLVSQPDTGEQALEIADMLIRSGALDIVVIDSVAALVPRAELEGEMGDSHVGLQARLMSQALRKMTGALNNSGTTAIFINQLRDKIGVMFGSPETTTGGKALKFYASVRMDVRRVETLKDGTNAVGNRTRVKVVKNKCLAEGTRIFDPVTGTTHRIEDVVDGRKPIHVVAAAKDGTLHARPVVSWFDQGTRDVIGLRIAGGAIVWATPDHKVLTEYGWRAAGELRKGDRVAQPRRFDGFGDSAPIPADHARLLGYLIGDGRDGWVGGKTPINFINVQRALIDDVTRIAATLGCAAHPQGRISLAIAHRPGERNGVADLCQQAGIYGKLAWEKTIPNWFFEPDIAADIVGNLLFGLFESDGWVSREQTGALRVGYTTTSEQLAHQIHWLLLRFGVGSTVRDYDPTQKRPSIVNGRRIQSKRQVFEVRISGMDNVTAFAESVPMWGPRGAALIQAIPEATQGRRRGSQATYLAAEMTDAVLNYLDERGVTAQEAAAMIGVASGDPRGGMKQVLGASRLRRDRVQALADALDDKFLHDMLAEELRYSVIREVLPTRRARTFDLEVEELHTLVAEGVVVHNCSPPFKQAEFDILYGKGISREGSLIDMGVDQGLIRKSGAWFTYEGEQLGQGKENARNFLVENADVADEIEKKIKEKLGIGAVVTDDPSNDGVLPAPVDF

[10] = cytotoxicity dependent on PAX8, dose response, cell-based, plate reader, dry powder (AID 743049); format: functional
[11] = cytotoxicity in COV434 cells, dose response, cytotoxicity control for PAX8 inhibitor project, cell-based, plate reader, dry powder, SA7 (AID 743145); format: functional
[12] = cytotoxicity in OVCAR4 cells, dose response, cytotoxicity control for PAX8 inhibitor project, cell-based, plate reader, dry powder, SA11 (AID 743150); format: functional; conditions: OVCAR-4
[13] = IGROV1 ovarian cancer cell cytotoxicity, dose response, PAX8 inhibitor project, plate reader, dry powder samples (AID 743043); format: functional, cell-based; conditions: IGROV-1
Paired box protein Pax-8 = Paired box protein Pax-8 (Homo sapiens, UniProt Q06710); assay: inhibitors of PAX8-driven TPO luciferase reporter, dose response, RMG-I cells, cherry-pick (AID 687027); format: functional, cell-based;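 also: luciferase reporter driven by Pax8 target thyroperoxidase promoter measured by SteadyGlo luminescence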
Chain of Paired box protein Pax-8 (Q06710 whole entry): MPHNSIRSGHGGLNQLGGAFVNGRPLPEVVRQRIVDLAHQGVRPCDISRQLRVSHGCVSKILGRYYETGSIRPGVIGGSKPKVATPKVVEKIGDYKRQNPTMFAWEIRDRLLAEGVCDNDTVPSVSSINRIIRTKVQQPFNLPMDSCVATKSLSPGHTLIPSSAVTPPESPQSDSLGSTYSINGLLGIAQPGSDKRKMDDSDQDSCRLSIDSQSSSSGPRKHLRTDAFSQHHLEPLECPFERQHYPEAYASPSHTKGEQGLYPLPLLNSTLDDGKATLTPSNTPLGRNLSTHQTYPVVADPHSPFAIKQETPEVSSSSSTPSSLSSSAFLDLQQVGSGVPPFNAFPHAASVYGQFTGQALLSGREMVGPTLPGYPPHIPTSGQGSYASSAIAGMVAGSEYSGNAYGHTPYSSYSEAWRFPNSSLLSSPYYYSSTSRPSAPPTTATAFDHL

[14] = PAX2 cell-based inhibition, dose response, selectivity assay for PAX8 inhibitor project, plate reader, dry powder samples (AID 743048); format: functional;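 also: HEK293 cells carrying a WT1 promoter luciferase reporter driven by expressed Pax2; potency is for inhibition of Pax2 driven reporter signal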
Vero = Vero cell cytotoxicity, cytotoxicity control for flavivirus capping enzyme inhibitors (AID 588742); format: functional; conditions: Chlorocebus sabaeus
[15] = cytotoxicity in COV362 ovarian cancer cells, dose response, cytotoxicity control for PAX8 inhibitor project, cell-based, plate reader, dry powder, SA12 (AID 743144); format: functional
Genome polyprotein = Genome polyprotein (dengue virus type 2, UniProt P29990); assay: Dengue-2 NS5 methyltransferase inhibitors, primary screen, biochemical, confirmation dose response (AID 588689); format: functional
Chain of Genome polyprotein (P29990 2492-3391 limits assumed): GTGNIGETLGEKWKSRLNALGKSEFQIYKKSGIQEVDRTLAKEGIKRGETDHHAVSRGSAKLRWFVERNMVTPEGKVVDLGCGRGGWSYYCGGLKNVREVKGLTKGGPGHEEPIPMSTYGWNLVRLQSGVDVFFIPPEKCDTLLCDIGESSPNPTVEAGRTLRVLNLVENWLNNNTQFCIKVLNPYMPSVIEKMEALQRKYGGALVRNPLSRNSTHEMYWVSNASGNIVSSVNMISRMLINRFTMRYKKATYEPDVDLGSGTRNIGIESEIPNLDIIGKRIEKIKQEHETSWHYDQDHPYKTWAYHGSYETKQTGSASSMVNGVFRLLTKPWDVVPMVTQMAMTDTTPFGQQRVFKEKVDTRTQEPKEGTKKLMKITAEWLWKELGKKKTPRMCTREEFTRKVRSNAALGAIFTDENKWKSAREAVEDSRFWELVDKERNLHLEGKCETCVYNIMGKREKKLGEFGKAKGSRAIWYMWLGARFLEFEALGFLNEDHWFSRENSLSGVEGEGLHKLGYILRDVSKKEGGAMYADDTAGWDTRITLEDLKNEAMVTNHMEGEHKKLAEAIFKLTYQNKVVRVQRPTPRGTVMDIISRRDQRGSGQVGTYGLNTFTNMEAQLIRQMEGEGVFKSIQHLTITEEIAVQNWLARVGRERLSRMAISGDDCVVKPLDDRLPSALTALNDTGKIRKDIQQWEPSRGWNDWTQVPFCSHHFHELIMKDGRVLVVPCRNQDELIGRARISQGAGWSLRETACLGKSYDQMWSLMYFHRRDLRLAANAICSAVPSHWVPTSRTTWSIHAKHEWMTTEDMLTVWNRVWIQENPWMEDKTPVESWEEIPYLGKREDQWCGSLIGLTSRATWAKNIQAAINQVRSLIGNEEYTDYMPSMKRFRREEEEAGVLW

H4 = assay: Luminescence Cell-Based Dose Response HTS to Identify Activators of 5'UTR Stem-Loop Driven Prion Protein mRNA Translation in H4 Neuroglioblastoma Cells. [Related pubchem assays: 1829 (Project Summary), 1814 (Primary HTS)]; format: functional; conditions: Homo sapiens
[16] = Late stage results for the probe development effort to identify inhibitors of Plasmodium falciparum gametocytes: Luminescence-based cell-based high throughput dose response assay to identify inhibitors of viability of late stage Plasmodium falciparum gametocytes.; format: functional
[17] = target: G-protein coupled receptor 183 (Homo sapiens, UniProt P32249); assay: SAR confirmation of small molecule antagonists of the EBI2 receptor via a luminescent beta-arrestin assa.; format: functional
Chain of G-protein coupled receptor 183 (P32249 whole entry): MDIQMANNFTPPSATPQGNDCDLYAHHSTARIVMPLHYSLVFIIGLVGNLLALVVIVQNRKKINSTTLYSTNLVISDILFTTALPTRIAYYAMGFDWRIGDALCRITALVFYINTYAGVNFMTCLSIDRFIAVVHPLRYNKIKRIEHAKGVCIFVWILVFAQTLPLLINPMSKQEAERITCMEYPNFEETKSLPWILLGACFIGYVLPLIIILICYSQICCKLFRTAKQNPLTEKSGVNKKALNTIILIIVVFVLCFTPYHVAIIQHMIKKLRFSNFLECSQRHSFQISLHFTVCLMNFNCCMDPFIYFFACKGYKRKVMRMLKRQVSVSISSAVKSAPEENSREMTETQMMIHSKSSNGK

## O=C(O)CCCN1C(=O)/C(=C\C(Cl)=C\c2ccccc2)SC1=S
[1]
  AC50: 22.9 µM (active)
[2]
  AC50: 66.9 µM (active)
[3]
  AC50: 29.7 µM (active)
[4]
  AC50: 13.2 µM (active)
[5]
  CC50: 6.87 µM (active)
[6]
  AC50: 10.2 µM (active)
[7]
  AC50: 18.4 µM (active)
[8]
  EC50: > 120 µM (not active)
[9]
  AC50: 9.77 µM (active)
Protein RecA
  EC50: 16.3 µM (active)
[10]
  AC50: 16 µM (active)
[11]
  AC50: 27.9 µM (active)
[12]
  AC50: 31.8 µM (active)
[13]
  AC50: 9.43 µM (active)
Paired box protein Pax-8
  AC50: 2.03 µM (active)
[14]
  AC50: 17.8 µM (active)
Vero
  CC50: 3.6 µM (active)
[15]
  AC50: 16 µM (active)
Genome polyprotein
  IC50: 36.2 µM (active)
H4
  EC50: > 120 µM (not active)

## O=C(Nc1nccs1)c1cn(-c2ccccc2)nc1-c1ccc(F)cc1
[16]
  IC50: > 74.4 µM (inactive)

## CC(C)c1ccc(CN2CCN(C(=O)/C=C/c3ccc(Br)cc3)CC2)cc1
[17]
  IC50: 0.00592 µM (active)
